Paper PMC6615598, “Novel antibiotics effective against gram-positive and -negative multi-resistant bacteria with limited resistance” (PLoS Biology, 2019)
“And” between values parts separate entries of the source, which are not always exact repeats. Equal entries are not always repeated. Starred links: 1 amine or outer side, 2 acyl side, 3 side chain; linkers in the order of their positions; H or OH if unused. Non-standard residues stand in square brackets, D forms with d. Residues, ends and D or L forms follow the SMILES beside them. azaβ3(1Nal) = O=C(CN(Cc1cccc2ccccc12)N[*:1])[*:2]

Assays:
zebrafish embryos = assay: Zebrafish embryo quantitative toxicity (size, curvature, cardiac frequency)
Experimental: Adult fish were kept in 30l aquariums at 27°C ± 2°C under constant light/dark (14:10 h) cycles. The day before the embryos were used, males and females were placed in breeding tanks. The fish were left undisturbed overnight, and the eggs were collected 1 h after the light was turned on the next morning. When the injections of the cyclic peptides started, embryos were transferred into microtiter plates placed at 28°C for 24 h. Peptides were prepared at 1, 10, 20, 40, and 100 mM concentrations in water, and injections were performed into the caudal vein. Each peptide was injected at 1 nl for all concentrations except 100 mM, when 2 nl was injected. Control embryos were injected with 1 nl of water. When the peptides were injected, analysis determined embryo sizes, curvatures, and cardiac frequencies. Peptide concentrations were checked in 10 embryos, and these were divided among 96-well plates and analyzed under a microscope or using a magnifying glass. […] To do this, each peptide was prepared in 0.9% NaCl and injected into the tail veins of 3 male Swiss mice at 1.5, 2.0, 2.5, or 5.0 mg.kg^−1, corresponding, respectively, to calculated blood concentrations of approximately 18.5, 24.5, 31, and 62.0 μM. […] Clinical signs were recorded daily, including any reduced motor activity, piloerection, and redness in the ear lobe, cyanosis, protruding eyeballs, slow or labored breathing, loss of response in the rear legs, convulsions, or death. Body weight was recorded at least once before the beginning of the treatment period and again on the day of treatment, with the satellite group checked once during the observation period. For the groups of mice observed for 7 d, food consumption was measured once during the study. […] Hematology investigations were performed before necropsy for all animals except the satellite ones, whose blood biochemistry parameters were determined before euthanasia. […]

S. aureus MRSA = assay: Cutaneous abscess mouse model (lesion size, CFU); format: in vivo, mice
Experimental: (§1) For the cutaneous abscess model, the mice were randomly divided into 5 sets. The mice were anesthetized with isoflurane, their dorsal fur shaved, and their skin disinfected with 70% ethanol. An overnight culture of S. aureus MRSA or P. aeruginosa LESB58 was washed with 0.9% NaCl, and then a subcutaneous injection of 2 × 10^9 CFUs and an equal amount of sterile Cytodex microcarrier beads (20 mg.ml^−1, Sigma) for S. aureus MRSA, or 10^8 CFUs for P. aeruginosa were injected into the shaved area. […] Mice were monitored every day and then euthanized with CO2 on Day 6 or on Day 3. Abscesses were excised, measured, and homogenized in PBS using an Ultra-Turax. Serial dilutions of the samples were plated on BHI (MRSA) or 2YT medium (LESB58) plates and then incubated overnight at 37°C. Afterward, the CFUs were counted and expressed as log CFU/ml. Dermonecrosis areas were calculated according to the formula π × L × W. ATP levels were determined with an ATP assay kit (Promega) according to manufacturer instructions on sets of 5 colonies harboring the SCV phenotype, and sets of 5 colonies harboring a normal phenotype, after growth on BHI plates.

S. aureus 33845 = assay: microbe, parasite or virus in culture; details: 33845
MRSA = assay: Membrane permeation, SYTO Green fluorescence; format: cell-based, S. aureus
Experimental: Permeation assays were also performed on gram-positive S. aureus membranes (MSSA and MRSA) by fluorescence assay [31] with SYTO Green nucleic acid stain (Life Technologies) in black flat-bottom 96-well microtiter plates (Greiner) in biological triplicate. Bacteria were grown to 0.3–0.4 OD600 in CAMHB at 37°C and centrifuged at 3,500 tr/min for 10 min. The pellet was washed and dissolved in PBS to an absorbance of 0.4 at 600 nm (approximately 2.10^8 CFU/ml). SYTO Green was added to the cells at a 5 μM final concentration, with dark incubation for 30 min. The amount of 50 μL of bacteria/SYTO Green mixture was added to each well containing compounds serially diluted in PBS, and fluorescence was measured at 37°C for up to 12 h using a spectrophotometer (BIOTEK, Tungsten-Halogen Lamp) with 485 nm excitation and 525 nm emission wavelengths.

S. aureus = assay: Intracellular ATP levels of SCV versus normal colonies from skin abscesses; format: cell-based; details: individual values
Experimental: as §1

P. aeruginosa LESB58 = assay: Cutaneous abscess mouse model (CFU); format: in vivo, mice
Experimental: as §1

[1] = mice, MRSA subcutaneous, single IV 1.5 mg.kg^−1 at 24 h, 6 days post infection

| SMILES | Cardiac frequency, Mean (zebrafish embryos; 1 nl of 1 mM injected) [heart beat/10 sec] | Cardiac frequency, Mean (zebrafish embryos; 1 nl of 10 mM injected) [heart beat/10 sec] | Cardiac frequency, Mean (zebrafish embryos; 1 nl of 20 mM injected) [heart beat/10 sec] | CFU counts per abscess, SCV (S. aureus MRSA; cutaneous abscesses from MRSA in mice, IV 24 h post-infection, 1.5 mg.kg-1, SCV, individual values) | Area of dermonecrosis (S. aureus MRSA; cutaneous abscesses from MRSA in mice, IV 24 h post-infection, 1.5 mg.kg-1, individual values) | Bacterial content of skin abscess (S. aureus MRSA; [1]) | Skin abscess volume (S. aureus MRSA; [1]) | MIC (S. aureus 33845) [mg/L^-1] | Membrane permeation (leakage) (MRSA) | Intracellular ATP level, 'normal growing' (S. aureus; 'normal growing' colonies from MRSA abscesses of mice treated IV with 1.5 mg.kg-1) | Intracellular ATP level, SCV (S. aureus; SCV from MRSA abscesses of mice treated IV with 1.5 mg.kg-1) | CFU counts per abscess (P. aeruginosa LESB58; cutaneous abscesses induced by P. aeruginosa in mice, repeated doses post-infection, 30mg/kg, second data set, individual values) | Reduction of the bacterial load of abscess (P. aeruginosa LESB58; mice, P. aeruginosa LESB58, 30 mg.kg^−1 subcutaneous twice a day for 2 d, day 3) [fold] |
| --- | --- | --- | --- | --- | --- | --- | --- | --- | --- | --- | --- | --- | --- |
| CC(C)[C@@H]1NC(=O)[C@H](CCCNC(=N)N)NC(=O)[C@H](CCCNC(=N)N)NC(=O)[C@H](Cc2c[nH]c3ccccc23)NC(=O)[C@H](Cc2ccccc2)NC(=O)[C@H](Cc2ccccc2)NC(=O)[C@H](CCCCN)NC1=O [Pep18] (cyclo(FFWRRVK)) | 29 | 29 | 22 | – | – | – | – | – | – | – | – | – | – |
| CC(C)[C@@H]1NC(=O)[C@H](CCCNC(=N)N)NC(=O)[C@H](CCCNC(=N)N)NC(=O)CN(Cc2cccc3ccccc23)NC(=O)[C@H](Cc2ccccc2)NC(=O)CN(Cc2cccc3ccccc23)NC(=O)[C@H](CCCCN)NC1=O [Pep19] (cyclo([azaβ3(1Nal)]F[azaβ3(1Nal)]RRVK)) | – | – | – | 5.62 log Cfu/ml and 5.85 log Cfu/ml and 5.73 log Cfu/ml and 5.93 log Cfu/ml and 5.11 log Cfu/ml and 4.73 log Cfu/ml and 4.55 log Cfu/ml and 5.5 log Cfu/ml and 5.67 log Cfu/ml | 165.8 mm2 and 78.8 mm2 and 98.9 mm2 and 174.7 mm2 and 106.7 mm2 and 160.2 mm2 and 96.4 mm2 and 106.4 mm2 and 176.2 mm2 | strong reduction | strong reduction | 16 | most active | 128624 AU and 143636 AU and 122235 AU and 111054 AU and 122356 AU | 21955.1 AU and 16114.9 AU and 17911.8 AU and 16800 AU and 28088.5 AU | 5.3 log Cfu/ml and 4.34 log Cfu/ml and 3.16 log Cfu/ml and 3.11 log Cfu/ml and 2.85 log Cfu/ml and 6.21 log Cfu/ml and 4.95 log Cfu/ml | ~50 |
